Assay results as given in patent publication US11479560B2, “OX2R compounds” (Board of Regents, The University of Texas System, priority 2018, dated 2022).

Assays:
Solubility remark = format: physicochemical; conditions: remark in words
[1] = Plasma and brain PK (IV / IP dosing)
[2] = Plasma and brain PK (5 mg/kg IV); format: in vivo; conditions: female CD-1 mice; for Tmax / Cmax / AUC(0-t): mouse; for AUC(0-t): read-out: Plasma AUClast
Microsomes stability = format: in vitro ADME
[3] = BBB penetration (method not described); conditions: brain / plasma, iv, 5 mg/kg; read-out: unlabelled value after the PK data (matches brain/plasma AUClast ratio, 5mpk IV)
in vitro = conditions: human, Caco-2
[4] = brain, read-out: Brain Tmax (converted)

For `Cc1ccc(Cn2c(=N)n(C(CO)Cc3cc[nH]c(=O)c3)c3ccccc32)cc1` (centres unmarked) [ww4-89], the solubility (Solubility remark) was “solubility issue along with tauto- meriza- tion, only proton NMR and LC-MS”.
With `Br.Cc1ccc(CC(C(=O)N2CC(C#N)C2)n2c(=N)n(C(C)c3ccc(C)cc3)c3cccnc32)cc1` (single isomer, unassigned) [WZ-II-253] the Cl_F_obs ([1]; Brain PK, 5 mg/Kg (5mpk) IV) was 9.5 mL/min, the Vz_F_obs ([1]; Brain PK, 5 mg/Kg (5mpk) IV) was 642 mL, and the Cl_F_obs ([1]; Plasma PK, 5 mg/Kg (5mpk) IV) was 3.86 mL/min. It also gave a Vz_F_obs ([1]; Plasma PK, 5 mg/Kg (5mpk) IV) of 221 mL, an AUC(0-t) ([1]; brain, iv, 5 mg/kg) of 209 ng·h/mL and a Cmax ([1]; brain, iv, 5 mg/kg) of 218 ng/mL. For the same compound, the Tmax ([1]; brain, iv, 5 mg/kg) was 10 min, the half-life ([1]; brain, iv, 5 mg/kg) was 47 min and the AUC(0-t) ([1]; plasma, iv, 5 mg/kg) was 518 ng·h/mL. The Cmax ([1]; plasma, iv, 5 mg/kg) was 651 ng/mL, the Tmax ([1]; plasma, iv, 5 mg/kg) was 10 min and the half-life ([1]; plasma, iv, 5 mg/kg) was 40 min.
In the case of `Cc1ccc(CC(CNC(=O)CO)n2c(=N)n([C@@H](C)c3ccc(C)cc3)c3ccccc32)cc1` (some centres unmarked) [ww5-189], the “Brain AUClast” value ([2]; brain) is reported as 11291.545 ng·min/mL, the “Brain Cmax” value ([2]; brain) is reported as 15.29 ng/mL and the “Brain HL_Lambda_z” value ([2]; brain) is reported as 728.6 min. For the same compound, the Tmax [2, 4] was 30 min, the Cmax ([2]; plasma) was 600 ng/mL and the AUC(0-t) ([2]; plasma) was 691 ng·h/mL. For the same compound, the Tmax ([2]; plasma, read-out: Plasma Tmax) was 10 min, the “Plasma Cl_F_obs” value ([2]; plasma) was 2.72 mL/min and the “Plasma HL_Lambda_z” value ([2]; plasma) was 230.4 min. The “Plasma Vz_F_obs” value ([2]; plasma) was 904.1 mL.
For `COCC(Cc1ccc(C)cc1)n1c(=N)n(C(c2ccc(C)cc2)C2CC2)c2ccccc21` (single isomer, unassigned) [ww6-61], the microsomal CLint (Microsomes stability) was 17 µL/min/mg, the half-life (Microsomes stability; read-out: Microsomes stability T1/2) was 19 min and the “Brain AUClast” value ([2]; brain) was 38968.815 ng·min/mL. For the same compound, the “Brain Cmax” value ([2]; brain) was 143.31 ng/mL, the “Brain HL_Lambda_z” value ([2]; brain) was 134.1 min and the Tmax [2, 4] was 30 min. It also gave a Cmax ([2]; plasma) of 841 ng/mL, an AUC(0-t) ([2]; plasma) of 986 ng·h/mL and a Tmax ([2]; plasma, read-out: Plasma Tmax) of 10 min. For the same compound, the “Plasma Cl_F_obs” value ([2]; plasma) was 1.922 mL/min, the “Plasma HL_Lambda_z” value ([2]; plasma) was 74.04 min and the “Plasma Vz_F_obs” value ([2]; plasma) was 205.3 mL.
Work on `Br.COCC(Cc1ccc(C)cc1)n1c(=N)n(C(C)c2ccc(C)cc2)c2cccnc21` (single isomer, unassigned) [WZ-II-149] yielded a Cl_F_obs ([1]; Brain PK, 5 mg/Kg (5mpk) IV) of 1491.875 mL/min, a Vz_F_obs ([1]; Brain PK, 5 mg/Kg (5mpk) IV) of 286490.1 mL and a Cl_F_obs ([1]; Brain PK, 10 mpk IP) of 24837.56 mL/min. The HL_Lambda_z ([1]; Brain PK, 10 mpk IP) was 64.37 min, the Vz_F_obs ([1]; Brain PK, 10 mpk IP) was 2306714 mL and the Cl_F_obs ([1]; Plasma PK, 5 mg/Kg (5mpk) IV) was 1689.5566 mL/min. For the same compound, the Vz_F_obs ([1]; Plasma PK, 5 mg/Kg (5mpk) IV) was 101565.51 mL, the Cl_F_obs ([1]; Plasma PK, 10 mpk IP) was 3706.43 mL/min and the HL_Lambda_z ([1]; Plasma PK, 10 mpk IP) was 38.92 min. For the same compound, the Vz_F_obs ([1]; Plasma PK, 10 mpk IP) was 208114 mL,, the AUC(0-t) ([1]; brain, ip, 10 mg/kg) was 134 ng·h/mL and the Cmax ([1]; brain, ip, 10 mg/kg) was 77.8 ng/mL. For the same compound, the Tmax ([1]; brain, ip, 10 mg/kg) was 10 min, the AUC(0-t) ([1]; brain, iv, 5 mg/kg) was 1280 ng·h/mL and the Cmax ([1]; brain, iv, 5 mg/kg) was 1300 ng/mL. It also gave a Tmax ([1]; brain, iv, 5 mg/kg) of 10 min, a half-life ([1]; brain, iv, 5 mg/kg) of 133 min and an AUC(0-t) ([1]; plasma, ip, 10 mg/kg) of 1000 ng·h/mL. It also gave a Cmax ([1]; plasma, ip, 10 mg/kg) of 638 ng/mL, a Tmax ([1]; plasma, ip, 10 mg/kg) of 10 min and an AUC(0-t) ([1]; plasma, iv, 5 mg/kg) of 1130 ng·h/mL. For the same compound, the Cmax ([1]; plasma, iv, 5 mg/kg) was 1050 ng/mL, the Tmax ([1]; plasma, iv, 5 mg/kg) was 10 min and the half-life ([1]; plasma, iv, 5 mg/kg) was 41.7 min. The Kp [3] was 1.13.
Work on `Br.Cc1ccc(C[C@@H](C(=O)N2CC3(COC3)C2)n2c(=N)n(C(C)c3ccc(C)cc3)c3ccccc32)cc1` (stereo partly drawn) [WZ-II-151, (2S)-2-(2-imino-3-(1-(p-tolyl)ethyl)-2,3-dihydro-1H-benzo[d]imidazol-1-yl)-1-(2-oxa-6-azaspiro[3.3]heptan-6-yl)-3-(p-tolyl)propan-1-one] yielded a Cl_F_obs ([1]; Brain PK, 5 mg/Kg (5mpk) IV) of 22.9 mL/min, a Vz_F_obs ([1]; Brain PK, 5 mg/Kg (5mpk) IV) of 8876 mL and a Cl_F_obs ([1]; Plasma PK, 5 mg/Kg (5mpk) IV) of 2.39 mL/min. The Vz_F_obs ([1]; Plasma PK, 5 mg/Kg (5mpk) IV) was 453 mL, the AUC(0-t) ([1]; brain, iv, 5 mg/kg) was 93.1 ng·h/mL and the Cmax ([1]; brain, iv, 5 mg/kg) was 22.7 ng/mL. The Tmax ([1]; brain, iv, 5 mg/kg) was 10 min, the half-life ([1]; brain, iv, 5 mg/kg) was 269 min and the AUC(0-t) ([1]; plasma, iv, 5 mg/kg) was 908 ng·h/mL. The Cmax ([1]; plasma, iv, 5 mg/kg) was 869 ng/mL, the Tmax ([1]; plasma, iv, 5 mg/kg) was 10 min and the half-life ([1]; plasma, iv, 5 mg/kg) was 131 min.
`C/N=c1\n(Cc2ccc(C)cc2)c2ccccc2n1C(CO)Cc1ccc(C)cc1` (centres unmarked) [ww4-276] gave a Papp A→B (in vitro) of 2.19 ×10⁻⁶ cm/s, a Papp B→A (in vitro) of 5.47 ×10⁻⁶ cm/s and an efflux ratio (in vitro) of 2.5.
With `Cc1ccc(CC(CNC(=O)CF)n2c(=N)n(Cc3ccc(C)cc3)c3ccccc32)cc1` (centres unmarked) [ww5-308] the Papp A→B (in vitro) was 3.05 ×10⁻⁶ cm/s and the Papp B→A (in vitro) was 8.72 ×10⁻⁶ cm/s.
